These results are taken from ChEMBL document CHEMBL1148617, “Design, synthesis, and structure-activity relationships of 1-,3-,8-, and 9-substituted-9-deazaxanthines at the human A2B adenosine receptor” (J Med Chem, 2006).

In one test the target is T1, Adenosine receptor A1 (Homo sapiens, UniProt P30542).
T1 sequence (P30542 whole entry): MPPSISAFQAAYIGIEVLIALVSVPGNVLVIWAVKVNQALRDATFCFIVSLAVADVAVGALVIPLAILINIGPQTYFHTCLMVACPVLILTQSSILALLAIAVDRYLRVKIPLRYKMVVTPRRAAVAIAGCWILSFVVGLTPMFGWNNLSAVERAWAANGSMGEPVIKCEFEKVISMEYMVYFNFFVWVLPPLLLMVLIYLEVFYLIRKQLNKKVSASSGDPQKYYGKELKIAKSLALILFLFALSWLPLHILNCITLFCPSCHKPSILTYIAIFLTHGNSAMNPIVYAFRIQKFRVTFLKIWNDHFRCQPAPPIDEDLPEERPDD

For another test, the target named is T2, Adenosine receptor A3 (Homo sapiens, UniProt P0DMS8).
T2 sequence (P0DMS8 whole entry): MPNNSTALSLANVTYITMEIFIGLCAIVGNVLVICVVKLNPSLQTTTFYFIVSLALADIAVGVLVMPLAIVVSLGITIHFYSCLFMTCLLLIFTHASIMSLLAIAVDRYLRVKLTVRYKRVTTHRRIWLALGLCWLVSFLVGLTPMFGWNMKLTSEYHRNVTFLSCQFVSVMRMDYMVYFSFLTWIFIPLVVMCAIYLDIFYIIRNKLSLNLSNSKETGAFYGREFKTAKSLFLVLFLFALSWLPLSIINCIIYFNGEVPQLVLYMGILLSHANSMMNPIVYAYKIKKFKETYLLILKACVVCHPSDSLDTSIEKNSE

Test [1] has as its target T3, Adenosine receptor A2a (Homo sapiens, UniProt P29274).
Description: Binding affinity to recombinant human adenosine A2A receptor
Test [2] addresses T4, Adenosine receptor A2a (Rattus norvegicus, UniProt P30543). Nature of the test: Binding affinity to rat adenosine A2A receptor.
A further test addresses T5, Adenosine receptor A2b (Homo sapiens, UniProt P29275).
T5 sequence (P29275 whole entry): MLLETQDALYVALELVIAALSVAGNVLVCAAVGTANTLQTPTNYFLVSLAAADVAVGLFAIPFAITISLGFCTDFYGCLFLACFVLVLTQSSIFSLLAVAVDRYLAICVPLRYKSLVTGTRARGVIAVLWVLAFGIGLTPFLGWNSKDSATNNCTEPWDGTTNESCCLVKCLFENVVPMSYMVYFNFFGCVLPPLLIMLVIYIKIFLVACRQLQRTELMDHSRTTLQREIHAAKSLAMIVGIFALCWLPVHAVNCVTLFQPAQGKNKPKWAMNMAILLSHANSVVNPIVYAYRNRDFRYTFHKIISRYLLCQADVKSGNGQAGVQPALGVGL

In test [3] the target is T6, Adenosine receptor A3 (Homo sapiens) (UniProt P0DMS8).
T6 sequence (whole entry): T2 sequence (P0DMS8 whole entry)
Nature of the test: Displacement of [3H]NECA from recombinant human adenosine A3 receptor expressed in HeLa cells at 1uM. The class given is cell-based. A general note: Loss of bound radioactivity is the signal in a displacement assay; it reports binding, not function.

The target in test [4] is T4, Adenosine receptor A2a. Nature of the test: Antagonist potency against adenosine A2A receptor of Sprague-Dawley rat aortic smooth muscle. The class given is functional. As to conditions: read-out: pA2 (converted).
The target of test [5] is T7, Adenosine receptor A2b (Homo sapiens) (UniProt P29275).
T7 sequence (whole entry): T5 sequence (P29275 whole entry)
The test is described as follows: Displacement of [3H]DPCPX from recombinant human adenosine A2B receptor expressed in HEK293 cells at 0.1 uM. The class given is cell-based.

In test [6] the target is T7, Adenosine receptor A2b (Homo sapiens). Nature of the test: Displacement of [3H]DPCPX from recombinant human adenosine A2B receptor expressed in HEK293 cells at 0.01 uM.
The target in test [7] is T3, Adenosine receptor A2a. The test is described as follows: Displacement of [3H]ZM-241385 from recombinant human adenosine A2A receptor expressed in HeLa cells at 0.1 uM.

T4 sequence (P30543 whole entry): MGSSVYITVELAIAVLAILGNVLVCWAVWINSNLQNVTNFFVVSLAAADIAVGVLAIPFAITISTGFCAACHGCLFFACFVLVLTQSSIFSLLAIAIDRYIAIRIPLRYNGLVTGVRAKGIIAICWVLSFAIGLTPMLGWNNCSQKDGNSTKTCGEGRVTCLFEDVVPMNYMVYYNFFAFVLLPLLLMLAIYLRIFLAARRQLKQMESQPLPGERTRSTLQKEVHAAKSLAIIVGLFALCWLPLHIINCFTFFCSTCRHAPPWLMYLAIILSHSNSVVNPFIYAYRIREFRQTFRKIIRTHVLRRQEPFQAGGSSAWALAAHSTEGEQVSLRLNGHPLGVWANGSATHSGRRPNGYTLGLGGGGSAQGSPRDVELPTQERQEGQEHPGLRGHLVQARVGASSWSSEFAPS
T3 sequence (P29274 whole entry): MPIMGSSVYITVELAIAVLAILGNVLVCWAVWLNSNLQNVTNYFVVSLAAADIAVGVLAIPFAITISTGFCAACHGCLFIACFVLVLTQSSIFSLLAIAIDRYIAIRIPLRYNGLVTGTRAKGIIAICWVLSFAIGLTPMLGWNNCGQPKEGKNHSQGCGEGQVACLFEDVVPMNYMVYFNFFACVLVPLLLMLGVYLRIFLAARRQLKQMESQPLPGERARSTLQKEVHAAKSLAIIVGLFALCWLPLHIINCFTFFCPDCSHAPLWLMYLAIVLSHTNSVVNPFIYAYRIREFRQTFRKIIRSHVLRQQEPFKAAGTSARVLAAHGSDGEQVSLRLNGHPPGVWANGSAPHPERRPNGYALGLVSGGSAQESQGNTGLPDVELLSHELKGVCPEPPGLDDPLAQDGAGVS
Description for Adenosine receptor A1: Binding affinity to recombinant human adenosine A1 receptor

`CCCn1c(=O)c2[nH]c(-c3ccc(OCC(=O)NCc4ccccc4)cc3)nc2n(CCC)c1=O`: the values for the Ki at Adenosine receptor A1, at Adenosine receptor A3 and at Adenosine receptor A2a [1] were 63.1 nM, 141 nM and 20 nM, respectively.

Take `CCCn1c(=O)c2nc(-c3ccc(OCC(=O)Nc4ccc(C)cc4)cc3)[nH]c2n(CCC)c1=O`: the inhibition constant (Ki) (as a rule, a dissociation constant, usually derived from enzyme kinetics or from competition with a known ligand) is 129 nM on Adenosine receptor A2a [2] and 1.91 nM on Adenosine receptor A2b.

`Cn1c(=O)c2[nH]c(-c3ccc(OCC(=O)Nc4ccc(Br)cc4)cc3)cc2n(C)c1=O`: the inhibition (usually the change of the read-out against control, counted positive when it falls) in test [3] is 8%; in [5], 90%; in test [6], 84%; at Adenosine receptor A2a [7], 12%. The Kb on Adenosine receptor A2a [4] was 126 nM. This compound also gave an inhibitory constant (Ki) on Adenosine receptor A1 of 18.2 nM.

Take `CC(Oc1ccc(-c2cc3c([nH]2)c(=O)n(C)c(=O)n3C)cc1)C(=O)Nc1ccccc1` (configuration not stated): the inhibition was 99% in test [5], 73% in [6] and 60% on Adenosine receptor A2a [7]. Besides, the Ki was 7.76 nM at Adenosine receptor A1, 912 nM at Adenosine receptor A3, 47.9 nM at Adenosine receptor A2a [1] and 4.79 nM on Adenosine receptor A2b.

Take `Cn1c(=O)c2[nH]c(-c3ccc(OCC(=O)Nc4ccc(F)cc4)cc3)cc2n(C)c1=O`: the inhibition stood at 20% in test [3], 100% in [5], 72% in test [6] and 41% on Adenosine receptor A2a [7]. For the same compound, the Kb at Adenosine receptor A2a [4] is 51.3 nM. At Adenosine receptor A1, this compound had a Ki of 14.8 nM.

`CCCn1c(=O)c2[nH]c(-c3ccc(OCC(=O)Nc4ccc(F)cc4)cc3)nc2n(CCC)c1=O` showed an inhibition constant (Ki) on Adenosine receptor A1 of 18.2 nM.

As to `COc1cc(OCC(=O)Nc2ccc(Br)cc2)ccc1-c1cc2c([nH]1)c(=O)n(C)c(=O)n2C`, the Kb on Adenosine receptor A2a [4] is 933 nM. The inhibition was found to be 83% in test [5], 60% in test [6] and 20% at Adenosine receptor A2a [7]. For the same compound, the figures for the Ki on Adenosine receptor A1 and at Adenosine receptor A3 were 32.4 nM and 10700 nM, respectively.

Consider `CCCn1c(=O)c2[nH]c(-c3ccc(OCC(=O)Nc4ccc(Br)cc4)cc3)nc2n(CCC)c1=O`, for which the Ki at Adenosine receptor A3 was 2340 nM; at Adenosine receptor A2a [1] it was 1660 nM; on Adenosine receptor A2b, 2.4 nM.

In the case of `CCCn1c(=O)c2[nH]c(-c3ccc(OCC(=O)Nc4ccc(-c5ccccc5)cc4)cc3)cc2n(C)c1=O`, at Adenosine receptor A2a [4], the Kb was 468 nM. Also, the inhibition in test [5] was 93%; in test [6], 39%; at Adenosine receptor A2a [7], 15%. Further, the results for the Ki at Adenosine receptor A1 and at Adenosine receptor A3 were 11 nM and 12300 nM, respectively.

As for `CCCn1c(=O)c2[nH]c(-c3ccc(OCC(=O)Nc4ccc(C(C)=O)cc4)cc3)c(Cl)c2n(CCC)c1=O`, the inhibition in [5] was found to be 43%; in test [6] it was 8%; on Adenosine receptor A2a [7], 21%. Further, the inhibition constant Ki at Adenosine receptor A2a [1] was 85.1 nM; at Adenosine receptor A2b it was 52.5 nM.

Regarding `Cn1c(=O)c2[nH]c(-c3ccc(OCC(=O)Nc4ccccc4)cc3)cc2n(C)c1=O`, the inhibition came to 91% in test [5], 44% in test [6] and 10% at Adenosine receptor A2a [7]. The affinity on Adenosine receptor A1 corresponds to a Ki of 240 nM.

In the case of `CCCn1c(=O)c2[nH]c(-c3ccc(OCC(=O)NCc4ccccc4)cc3)cc2n(CCC)c1=O`, the results for the inhibition (in test [5]; in test [6]; at Adenosine receptor A2a [7]) were 95%, 78% and 38%, respectively. Moreover, the inhibition constant (Ki) at Adenosine receptor A2a [1] was 89.1 nM; at Adenosine receptor A2b, 3.16 nM.

In the case of `CCCn1c(=O)c2[nH]c(-c3ccc(OCC(=O)Nc4ccc(OC)nc4)cc3)cc2n(CCC)c1=O`, the inhibition in test [5] came out at 84%; in [6], 41%; at Adenosine receptor A2a [7] it was 50%. The Ki at Adenosine receptor A2a [1] is 107 nM; at Adenosine receptor A2b, 10.7 nM.

Regarding `CCCn1c(=O)c2[nH]c(-c3ccc(OCC(=O)Nc4ccccc4F)cc3)c(Cl)c2n(CCC)c1=O`, the inhibition was 30% in test [5], 5% in [6] and 2% on Adenosine receptor A2a [7]. For the same compound, the values for the inhibition constant Ki on Adenosine receptor A2a [1] and at Adenosine receptor A2b were 724 nM and 141 nM, respectively.

In the case of `Cn1c(=O)c2[nH]c(-c3ccc(OCC(=O)NC4CCc5ccccc54)cc3)cc2n(C)c1=O` (configuration not stated), the results for the inhibition (in test [5]; in test [6]; on Adenosine receptor A2a [7]) were 74%, 30% and 20%, respectively. Moreover, the figures for the inhibition constant Ki on Adenosine receptor A2a [1] and on Adenosine receptor A2b were 214 nM and 22.4 nM, respectively.

Turning to `COCCCn1c(=O)n(C)c(=O)c2[nH]c(-c3ccc(OCC(=O)NC4CCCC4)cc3)cc21`, the inhibition in test [5] worked out at 16%; in test [6], 8%; on Adenosine receptor A2a [7], 0%. Besides, the Ki at Adenosine receptor A2a [1] is 427 nM; at Adenosine receptor A2b, 263 nM.

For `CCCn1c(=O)c2[nH]c(-c3ccc(OCC(=O)Nc4ccccc4)cc3)cc2n(CCC)c1=O`, the inhibition in test [5] turned out to be 92%; in [6], 47%; on Adenosine receptor A2a [7], 6%. Also, the inhibition constant Ki at Adenosine receptor A2a [1] was 224 nM; at Adenosine receptor A2b, 9.33 nM.

Regarding `CCCn1c(=O)c2[nH]c(-c3ccc(OCC(=O)Nc4ccccc4)cc3)nc2n(CCC)c1=O`, the Ki is 40.7 nM at Adenosine receptor A1, 2.24 nM at Adenosine receptor A2a [1] and 1.51 nM at Adenosine receptor A2b.

For `CCCn1c(=O)c2[nH]c(-c3ccc(OC(C)C(=O)Nc4ccc(OC)cc4)cc3)cc2n(CCC)c1=O` (configuration not stated), the results for the inhibition (in test [5]; in test [6]; on Adenosine receptor A2a [7]) were 92%, 55% and 57%, respectively. The Ki is 38.9 nM at Adenosine receptor A2a [1] and 5.13 nM on Adenosine receptor A2b.

Regarding `CCCn1c(=O)c2[nH]c(-c3ccc(OCC(=O)Nc4ccc(OC)cc4)cc3)cc2n(CCC)c1=O`, the inhibition in test [5] was found to be 80%; in test [6], 22%; on Adenosine receptor A2a [7] it was 52%. Also, the results for the Ki at Adenosine receptor A2a [1] and at Adenosine receptor A2b were 20 nM and 12 nM, respectively.

Turning to `Cn1c(=O)c2[nH]c(-c3ccc(OCC(=O)Nc4ccc([N+](=O)[O-])cc4)cc3)cc2n(C)c1=O`, the inhibition in [5] is 82%; in test [6], 52%; on Adenosine receptor A2a [7], 30%. Further, the results for the Ki at Adenosine receptor A2a [1] and at Adenosine receptor A2b were 81.3 nM and 6.92 nM, respectively.

`Cn1c(=O)c2[nH]c(-c3ccc(OCC(=O)Nc4ccc(C#N)cc4)cc3)cc2n(C)c1=O`: the Kb on Adenosine receptor A2a [4] is 43.7 nM. The figures for the inhibition (in test [5]; in test [6]; on Adenosine receptor A2a [7]) were 91%, 60% and 47%, respectively. The Ki at Adenosine receptor A1 is 4.27 nM.

`CC(Oc1ccc(-c2cc3c([nH]2)c(=O)n(C)c(=O)n3C)cc1)C(=O)Nc1ccc(Br)cc1` (configuration not stated): the inhibition in [5] was determined as 93%; in test [6], 89%; at Adenosine receptor A2a [7], 77%. Further, the values for the inhibition constant (Ki) on Adenosine receptor A2a [1] and on Adenosine receptor A2b were 26.9 nM and 1.55 nM, respectively.

Take `CCCn1c(=O)c2[nH]c(-c3ccc(OCC(=O)Nc4ccc(C)cc4)cc3)c(Cl)c2n(CCC)c1=O`: the inhibition in [5] is 78%; in test [6], 38%; at Adenosine receptor A2a [7] it was 50%. Also, the Ki at Adenosine receptor A2a [1] is 32.4 nM; at Adenosine receptor A2b, 18.6 nM.

`COc1cc(-c2cc3c([nH]2)c(=O)n(C)c(=O)n3C)ccc1OCC(=O)Nc1ccccc1`: the inhibition in test [5] is 27%; in test [6], 10%; at Adenosine receptor A2a [7], 20%. Further, the Ki is 302 nM on Adenosine receptor A2a [1] and 148 nM on Adenosine receptor A2b.

For `CCCn1c(=O)c2[nH]c(-c3ccc(OCC(=O)Nc4ccccn4)cc3)cc2n(CCC)c1=O`, the inhibition in test [5] was 83%; in test [6] it was 33%; on Adenosine receptor A2a [7], 34%. For the same compound, the inhibition constant Ki is 309 nM on Adenosine receptor A2a [1] and 26.9 nM at Adenosine receptor A2b.

As to `CCCn1c(=O)c2[nH]c(-c3ccc(OCC(=O)Nc4ccc(NC(C)=O)cc4)cc3)cc2n(CCC)c1=O`, the inhibition in [5] was 70%; in [6], 23%; at Adenosine receptor A2a [7] it was 40%. Moreover, the results for the inhibition constant (Ki) on Adenosine receptor A2a [1] and at Adenosine receptor A2b were 63.1 nM and 13.8 nM, respectively.
